The values that follow come from patent US10174007B2, “Substituted 3-azabicyclo[3.1.0]hexanes as ketohexokinase inhibitors” (Pfizer Inc., priority 2015, dated 2019).

Experiment [1] deals with T1, KHK-C (Homo sapiens (Human), UniProt P50053). The experiment can be described thus: Assay A: coupled-enzyme KHK absorbance assay, 10 nM KHK-C. The note with it: 10 nM KHK-C, 0.8 mM fructose, 0.2 mM ATP, avg of (#) runs.
Source text: (§1) A screening assay was developed for KHK involving a coupled enzyme system which used the product of the KHK reaction to drive an absorbance signal in kinetic mode. KHK takes fructose and ATP and converts it to F1P and ADP. ADP then serves as substrate to pyruvate kinase which converts PEP to pyruvate which is then reduced to lactate by lactate dehydrogenase with the concomitant oxidation of NADH to NAD+. The resulting depletion of NADH was monitored by measuring absorbance at 340 nm.
(§2) Recombinant human KHK-C and KHK-A were expressed in E. coli as a His-tagged fusion protein and purified using Ni-NTA chromatography.
Compounds were prepared in DMSO as 4 mM stocks, diluted using an 11-point half-log scheme on a Biomek FX (Beckman Coulter), and incubated at rt for 30 minutes with the reaction mixture containing 50 mM HEPES, pH 7.4, 140 mM KCl, 3.5 mM MgCl2, 0.8 mM fructose, 2 mM TCEP, 0.8 mM PEP, 0.7 mM NADH, 0.01% Triton X-100, 30 U/mL pyruvate kinase-lactate dehydrogenase, and 10 nM purified KHK-C. The compound concentration in each well ranged from 1 nM to 100 μM. The reaction was initiated with the addition of 0.2 mM ATP. The absorbance was measured for 30 minutes on a SpectraMax reader (Molecular Devices) after ATP was added. The concentrations provided are based on the final mixture volume of 40 μL (referred to as the final concentration).
Controls: N8-(cyclopropylmethyl)-N4-(2-(methylthio)phenyl)-2-(piperazin-1-yl)pyrimido[5,4-d]pyrimidine-4,8-diamine at 2 μM final concentration was used as high percent effect (HPE) control, and 2.5% DMSO which was present in all reaction wells was used as zero percent effect (ZPE) control. Reaction rates were obtained for 300-1800 seconds time window in units of 1000*AU/min (absorbance unit per minute), and average values for ZPE and HPE controls from 16 wells each were calculated, AveZPE and AveHPE, respectively.
Percent inhibition (% inhibition) was calculated for each well using this equation:
For each compound tested, the IC50 provided is the average based on at least two separate assays conducted on separate days.
Experiment [2] has as its target T1, KHK-C. The experiment can be described thus: Assay B: KHK assay with 1 nM KHK-C, absorbance for 3 hours.
Source text: as §1
The reaction was initiated with addition of 0.2 mM ATP, and the absorbance was monitored for 3 hours at 340 nm. Reaction rates and IC50 values were calculated as described above.
The target in the next experiment is KHK-A (Homo sapiens (Human), UniProt P50053). As to the kind of experiment: Assay D: KHK assay with 1 nM human KHK-A. Conditions: read-out: IC50 (nM) Assay D 1 nM KHK-A, 8 mM fructose, 0.2 mM ATP, avg of (#) runs.
Chain of KHK-A (P50053 other isoform, or with tags, fused parts or gaps): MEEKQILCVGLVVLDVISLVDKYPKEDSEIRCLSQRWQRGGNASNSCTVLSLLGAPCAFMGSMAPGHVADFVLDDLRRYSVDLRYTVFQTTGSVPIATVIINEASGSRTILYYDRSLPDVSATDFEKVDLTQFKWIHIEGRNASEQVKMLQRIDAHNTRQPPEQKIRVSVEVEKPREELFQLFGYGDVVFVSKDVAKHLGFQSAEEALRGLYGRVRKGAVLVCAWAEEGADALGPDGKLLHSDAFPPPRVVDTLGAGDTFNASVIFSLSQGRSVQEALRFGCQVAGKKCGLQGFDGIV
Experiment [3] has as its target T1, KHK-C. As to the kind of experiment: Assay C: KHK assay at high fructose (8 mM) and ATP (2 mM), 1 nM KHK-C. In kind it is biochemical. Conditions: 8 mM fructose, 2 mM ATP, avg of (#) runs.
Source text: as §1, §2
A third KHK assay, referred to as Assay C, was performed at high fructose and ATP concentrations, conditions that would be more consistent with physiological concentrations of the natural substrates of the KHK enzyme. Assay C was conducted as described above for Assay B except using 8 mM fructose and 2 mM ATP, and compound concentration range of 10 pM to 1 μM or 50 pM to 5 μM using half-log dilution scheme.
Setting [4] is: read-out: IC50 (nM) Assay A 10 nM KHK-C.
Where [5] appears, read: read-out: IC50 (nM) Assay A (Table 4).
Setting [6] is: read-out: IC50 (nM) Assay B 1 nM KHK-C, 1 nM KHK-C, 0.2 mM ATP, 3 hours, avg of (#) runs.

T1 sequence (P50053 whole entry): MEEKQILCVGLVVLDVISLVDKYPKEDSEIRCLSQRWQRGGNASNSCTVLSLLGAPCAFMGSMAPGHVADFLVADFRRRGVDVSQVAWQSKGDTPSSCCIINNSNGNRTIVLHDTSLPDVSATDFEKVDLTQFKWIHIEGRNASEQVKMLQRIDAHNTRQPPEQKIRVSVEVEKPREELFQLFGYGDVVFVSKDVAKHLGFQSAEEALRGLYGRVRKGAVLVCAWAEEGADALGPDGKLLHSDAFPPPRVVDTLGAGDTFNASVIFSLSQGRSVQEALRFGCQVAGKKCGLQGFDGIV
Source text for KHK-A: as §1
A fourth assay, referred to as Assay D, was performed using human KHK-A to assess the potency of compounds in inhibiting activity of this enzyme. […] Reaction rates and IC50 values were calculated as described above.

For the compound `Cc1c(C(F)F)nc(N2CC[C@@H]2C)nc1N1C[C@@H]2[C@@H](CC(=O)O)[C@@H]2C1` [Example 43, [(1R,5S,6R)-3-{6-(difluoromethyl)-5-methyl-2-[(2S)-2-methylazetidin-1-yl]pyrimidin-4-yl}-3-azabicyclo[3.1.0]hex-6-yl]acetic acid], the IC50 (in general, the midpoint of a concentration-inhibition curve) at KHK-C [1] (setting [4]) came to 17.8 nM; at KHK-C [1] (setting [5]), 17.8 nM; at KHK-C [2] (setting [6]) it was 8 nM; at KHK-A, 48.6 nM. As to `Cc1c(N2C[C@@H]3[C@@H](CC(=O)O)[C@@H]3C2)nc(N2CC[C@@H]2C)nc1C(F)(F)F` [Example 42, [(1R,5S,6R)-3-{5-methyl-2-[(2S)-2-methylazetidin-1-yl]-6-(trifluoromethyl)pyrimidin-4-yl}-3-azabicyclo[3.1.0]hex-6-yl]acetic acid], the IC50 worked out at 8.8 nM on KHK-C [1] (setting [4]), 8.8 nM on KHK-C [1] (setting [5]), 2.4 nM on KHK-C [2] (setting [6]) and 10.5 nM on KHK-A. With `C[C@H]1[C@H](O)CN1c1nc(N2C[C@@H]3[C@@H](CC(=O)O)[C@@H]3C2)c(Cl)c(C(F)(F)F)c1C#N` [Example 2, [(1R,5S,6R)-3-{3-chloro-5-cyano-6-[(2S,3R)-3-hydroxy-2-methylazetidin-1-yl]-4-(trifluoromethyl)pyridin-2-yl}-3-azabicyclo[3.1.0]hex-6-yl]acetic acid], the figures for the IC50 on KHK-C [1] (setting [4]), against KHK-C [3] and against KHK-C [2] were 6.8 nM, 3.6 nM and 1.5 nM, respectively. On to `CC1CCCCN1c1nc(N2C[C@@H]3[C@@H](CC(=O)O)[C@@H]3C2)cc(C(F)(F)F)n1` (stereo partly drawn) [Example 39, {(1R,5S,6s)-3-[2-(2-methylpiperidin-1-yl)-6-(trifluoromethyl)pyrimidin-4-yl]-3-azabicyclo[3.1.0]hex-6-yl}acetic acid], for which the IC50 at KHK-C [1] (setting [5]) stood at 24.8 nM. Turning to `C[C@H]1CCN1c1nc(N2C[C@@H]3[C@@H](CC(=O)O)[C@@H]3C2)cc(C(F)F)c1C#N` [Example 19, [(1R,5S,6R)-3-{5-cyano-4-(difluoromethyl)-6-[(2S)-2-methylazetidin-1-yl]pyridin-2-yl}-3-azabicyclo[3.1.0]hex-6-yl]acetic acid], the IC50 on KHK-C [1] (setting [5]) was found to be 7.2 nM.

Take `N#Cc1c(C(F)(F)F)cc(N2C[C@@H]3[C@@H](CC(=O)O)[C@@H]3C2)nc1C1CCC1` [Example 31, {(1R,5S,6s)-3-[5-cyano-6-cyclobutyl-4-(trifluoromethyl)pyridin-2-yl]-3-azabicyclo[3.1.0]hex-6-yl}acetic acid]: at KHK-C [1] (setting [5]), the IC50 was 30 nM. On the same count and under the same terms, the result for `CCc1c(C(F)F)nc(N2C[C@@H](O)[C@@H]2C)nc1N1C[C@@H]2[C@@H](CC(=O)O)[C@@H]2C1` [Example 41, [(1R,5S,6R)-3-{6-(difluoromethyl)-5-ethyl-2-[(2S,3R)-3-hydroxy-2-methylazetidin-1-yl]pyrimidin-4-yl}-3-azabicyclo[3.1.0]hex-6-yl]acetic acid] reads 111 nM. For `C[C@H]1CCN1c1nc(N2C[C@@H]3[C@@H](CC(=O)NS(C)(=O)=O)[C@@H]3C2)cc(C(F)(F)F)n1` [Example 10, 2-[(1R,5S,6R)-3-{2-[(2S)-2-methylazetidin-1-yl]-6-(trifluoromethyl)pyrimidin-4-yl}-3-azabicyclo[3.1.0]hex-6-yl]-N-(methylsulfonyl)acetamide], on KHK-C [1] (setting [4]), the IC50 was 682 nM. For the compound `C[C@@H]1N(c2nc(C(F)F)c(Cl)c(N3C[C@@H]4[C@@H](CC(=O)O)[C@@H]4C3)n2)C[C@@]1(C)O` [Example 36, [(1R,5S,6R)-3-{5-chloro-6-(difluoromethyl)-2-[(2S,3R)-3-hydroxy-2,3-dimethylazetidin-1-yl]pyrimidin-4-yl}-3-azabicyclo[3.1.0]hex-6-yl]acetic acid], the IC50 at KHK-C [1] (setting [5]) came out at 103 nM. Still for that read-out and setting: the result for `N#Cc1c(C(F)F)cc(N2C[C@@H]3[C@@H](CC(=O)O)[C@@H]3C2)nc1NC1CCC1` [Example 51, {(1R,5S,6s)-3-[5-cyano-6-(cyclobutylamino)-4-(difluoromethyl)pyridin-2-yl]-3-azabicyclo[3.1.0]hex-6-yl}acetic acid] reads 150 nM; that for `C[C@H]1[C@H](O)CN1c1cc(N2C[C@@H]3[C@@H](CC(=O)O)[C@@H]3C2)nc(C(F)(F)F)n1` [Example 32, [(1R,5S,6R)-3-{6-[(2S,3R)-3-hydroxy-2-methylazetidin-1-yl]-2-(trifluoromethyl)pyrimidin-4-yl}-3-azabicyclo[3.1.0]hex-6-yl]acetic acid], 1760 nM. The same measure, in the same setting: the result for `Cc1c(N2C[C@@H]3[C@@H](CC(=O)O)[C@@H]3C2)nc(N2C[C@@](C)(O)[C@@H]2C)nc1C(F)(F)F` [Example 26, [(1R,5S,6R)-3-{2-[(2S,3R)-3-hydroxy-2,3-dimethylazetidin-1-yl]-5-methyl-6-(trifluoromethyl)pyrimidin-4-yl}-3-azabicyclo[3.1.0]hex-6-yl]acetic acid] reads 63.6 nM. Consider `C[C@H]1CCN1c1nc(N2C[C@@H]3[C@@H](Cc4nnn[nH]4)[C@@H]3C2)cc(C(F)(F)F)n1` [Example 11, (1R,5S,6R)-3-{2-[(2S)-2-methylazetidin-1-yl]-6-(trifluoromethyl)pyrimidin-4-yl}-6-(1H-tetrazol-5-ylmethyl)-3-azabicyclo[3.1.0]hexane], for which the IC50 at KHK-C [1] (setting [4]) was 866 nM. As to `C[C@@H]1N(c2nc(N3C[C@@H]4[C@@H](CC(=O)O)[C@@H]4C3)cc(C(F)(F)F)n2)C[C@@]1(C)O` [Example 22, [(1R,5S,6R)-3-{2-[(2S,3R)-3-hydroxy-2,3-dimethylazetidin-1-yl]-6-(trifluoromethyl)pyrimidin-4-yl}-3-azabicyclo[3.1.0]hex-6-yl]acetic acid], on KHK-C [1] (setting [5]), the IC50 amounted to 703 nM. On the same count and under the same terms, the result for `Cc1c(C(F)F)nc(N2C[C@@](C)(O)[C@@H]2C)nc1N1C[C@@H]2[C@@H](CC(=O)O)[C@@H]2C1` [Example 25, [(1R,5S,6R)-3-{6-(difluoromethyl)-2-[(2S,3R)-3-hydroxy-2,3-dimethylazetidin-1-yl]-5-methylpyrimidin-4-yl}-3-azabicyclo[3.1.0]hex-6-yl]acetic acid] reads 259 nM. As for `C[C@H]1CCN1c1nc(C(F)F)c(Cl)c(N2C[C@@H]3[C@@H](CC(=O)O)[C@@H]3C2)n1` [Example 40, [(1R,5S,6R)-3-{5-chloro-6-(difluoromethyl)-2-[(2S)-2-methylazetidin-1-yl]pyrimidin-4-yl}-3-azabicyclo[3.1.0]hex-6-yl]acetic acid], the IC50 at KHK-C [1] (setting [4]) was determined as 11.1 nM; at KHK-C [1] (setting [5]), 11.1 nM; at KHK-C [2] (setting [6]), 3.7 nM; on KHK-A, 37.9 nM. On to `CCc1c(N2C[C@@H]3[C@@H](CC(=O)O)[C@@H]3C2)nc(N2C[C@@H](O)[C@@H]2C)nc1C(F)(F)F` [Example 8, [(1R,5S,6R)-3-{5-ethyl-2-[(2S,3R)-3-hydroxy-2-methylazetidin-1-yl]-6-(trifluoromethyl)pyrimidin-4-yl}-3-azabicyclo[3.1.0]hex-6-yl]acetic acid], for which the IC50 on KHK-C [1] (setting [4]) came out at 53.8 nM. Take `N#Cc1c(C(F)(F)F)cc(N2C[C@@H]3[C@@H](CC(=O)O)[C@@H]3C2)nc1N1CCC1` [Example 46, {(1R,5S,6s)-3-[6-(azetidin-1-yl)-5-cyano-4-(trifluoromethyl)pyridin-2-yl]-3-azabicyclo[3.1.0]hex-6-yl}acetic acid]: the IC50 on KHK-C [1] (setting [5]) amounted to 21.5 nM. In the case of `C[C@H]1CCCN1c1nc(N2C[C@@H]3[C@@H](CC(=O)O)[C@@H]3C2)cc(C(F)(F)F)n1` [Example 28, [(1R,5S,6R)-3-{2-[(2S)-2-methylpyrrolidin-1-yl]-6-(trifluoromethyl)pyrimidin-4-yl}-3-azabicyclo[3.1.0]hex-6-yl]acetic acid], the IC50 at KHK-C [1] (setting [5]) came out at 120 nM. As to `C[C@H]1[C@H](O)CN1c1nc(N2C[C@@H]3[C@@H](CC(=O)O)[C@@H]3C2)c(C2CC2)c(C(F)(F)F)n1` [Example 7, [(1R,5S,6R)-3-{5-cyclopropyl-2-[(2S,3R)-3-hydroxy-2-methylazetidin-1-yl]-6-(trifluoromethyl)pyrimidin-4-yl}-3-azabicyclo[3.1.0]hex-6-yl]acetic acid], the IC50 at KHK-C [1] (setting [4]) stood at 111 nM. In the case of `C[C@H]1[C@H](O)CN1c1cc(N2C[C@@H]3[C@@H](CC(=O)O)[C@@H]3C2)c(Cl)c(C(C)(F)F)n1` [Example 12, [(1R,5S,6R)-3-{3-chloro-2-(1,1-difluoroethyl)-6-[(2S,3R)-3-hydroxy-2-methylazetidin-1-yl]pyridin-4-yl}-3-azabicyclo[3.1.0]hex-6-yl]acetic acid], the IC50 on KHK-C [1] (setting [4]) was determined as 289 nM. With `C[C@H]1[C@H](O)CN1c1nc(C(F)F)cc(N2C[C@@H]3[C@@H](CC(=O)O)[C@@H]3C2)n1` [Example 14, [(1R,5S,6R)-3-{6-(difluoromethyl)-2-[(2S,3R)-3-hydroxy-2-methylazetidin-1-yl]pyrimidin-4-yl}-3-azabicyclo[3.1.0]hex-6-yl]acetic acid], the IC50 at KHK-C [1] (setting [5]) came to 152 nM. Same read-out and setting: the result for `C[C@H]1[C@H](O)CN1c1nc(N2C[C@@H]3[C@@H](CC(=O)O)[C@@H]3C2)nc(C(F)(F)F)n1` [Example 30, [(1R,5S,6R)-3-{4-[(2S,3R)-3-hydroxy-2-methylazetidin-1-yl]-6-(trifluoromethyl)-1,3,5-triazin-2-yl}-3-azabicyclo[3.1.0]hex-6-yl]acetic acid] reads 509 nM.
